This is an account of results in patent publication US20180344637A1, “WATER SOLUBLE MICELLAR DRUG DELIVERY AGENTS” (Wayne State University, priority 2015, published 2018).

≈ marks a conversion by molar mass, not a printed value.

Data set [1] concerns MiaPaCa-2 cells. The data set is described as follows: MTT assay before and after HA receptor blockade. It is filed as cell-based, human. The following applies: MiaPaCa-2, 72 h. An excerpt:
FIG. 13(c) and FIG. 13(d) show comparisons of percent cell viability of different formulations before and after HA receptor blockade.

Data set [2] has as its system AsPC-1 cells. Nature of the data set: In vitro MTT cytotoxicity assay. As to conditions: 72 h. It is filed as cell-based, human. As to the method: (§1) Human pancreatic cancer cell lines MiaPaCa-2 and AsPC-1 were used. Both cell lines were maintained in Dulbecco's Modified Eagle's Medium (DMEM; Invitrogen), supplemented with 5% FBS, 2 mmol/L glutamine, 50 units/mL penicillin, and 50 μg/mL streptomycin under standard culture conditions. The cell lines have been tested and authenticated in the core facility of Applied Genomics Technology Center at Wayne State University. The method used for testing was short tandem repeat profiling using the PowerPlex 16 System from Promega.
(§2) The in vitro cytotoxicity of free CDF, CUR, SMA and micelles was evaluated by MTT cytotoxicity assay based on measurement of the activity of enzymes present in live cells that reduces MTT to give a purple color. Cells were seeded in a 96-well culture plate and the formulations were applied 24 h after seeding as freshly prepared solutions in PBS (pH 7.4) using between 100 to 1000 nM concentrations of the test agents. MTT (0.5 mg/ml) was added at the end of treatment (72 h) and plates incubated at 37° C. for 2 h, followed by replacement of media with DMSO at room temperature for 30 min and absorbance were measured at 590 nm using Ultra Multi-functional Micro plate Reader (TECAN).

Data set [3] deals with MiaPaCa-2 cells. Nature of the data set: In vitro MTT cytotoxicity assay. It is filed as cell-based, human. As to conditions: 72 h. As for the experimental part:
as §1, §2
Background: Formazan colour is commonly taken as a measure of viable cells.

For data set [4], the system named is CD44+ cells (CD44+/CD133+/EpCAM+ CSLCs from MiaPaCa-2). The data set is described as follows: MTT assay on CD44+ versus CD44− pancreatic cancer cells. It is filed as cell-based, human. As to conditions: 72 h. As to the method: The CSLCs (triple-marker positive; CD44+/CD133+/EpCAM+) and triple-marker negative (CD44−/CD133−/EpCAM−) cells were isolated from human pancreatic MiaPaCa-2 cells, by fluorescence-activated cell sorting (FACS) technique. The postsorted cells were subsequently maintained in 5% FBS-DMEM media at 37° C. under standard culture conditions.
Triple-marker positive (CD44+/CD133+/EpCAM+) CSLCs and triple-marker-negative (CD44−/CD133−/EpCAM−) cells were isolated and cultured as described in above and seeded in a 96-well culture plate, and subsequently free CDF, HA-SMA, nontargeted (SMA-CDF), and targeted (HA-SMA-CDF) nanomicelles were applied 24 h after seeding as a freshly prepared solution in DMSO diluted with PBS (pH 7.4) at between 250 to 750 nM concentration, MTT reagent was added and the absorbance measured at 595 nm using an Ultramultifunctional Microplate Reader ([…], Switzerland), and percent cell viability was determined by comparing the values with appropriate controls.

The subject of data set [5] is CD44. Nature of the data set: Western blot analysis of CD44 expression. It is filed as cell-based, human. As to conditions: 250 nM, 48 h, triple marker positive CSLCs, versus untreated and HA-SMA controls. As to the method:
Triple marker positive CSLCs derived from MiaPaCa-2 were plated and allowed to attach for 36 h. CDF loaded formulations were directly added to cell cultures at 250 nM concentration and incubated for 48 h. Untreated (control) and HASMA treated (control) cells were incubated in the medium containing an equivalent concentration of PBS. After incubation, the cells were collected in PBS, and whole cell lysate was prepared by suspending the cells in 150 μL of lysis buffer [1 mol/L Tris-HCl (pH 7.5), 150 mmol/L NaCl, 1 mmol/L EDTA, 0.1% Triton X-100, 0.1 mmol/L sodium orthovanadate, 1 mmol/L phenylmethylsulfonyl fluoride ([…]), and 2 μg/mL leupeptin and 2μg,/mL aprotinin] lysed, and centrifuged. The cells were disrupted by sonication (Branson Ultrasonics, Danbury, Conn.), and the total protein content was determined by bicinchoninic acid (BCA) assay. For immunoblotting, 30 μg of total proteins was separated on SDS-PAGE, electro-transferred onto nitrocellulose membranes, and probed with specific antibodies ([…], MA). Detection of specific proteins was carried out with an enhanced chemiluminescence western blotting kit according to the manufacturer's instructions (Life Technologies, Waltham, Mass.).

The conditions of data set [6]: cited from earlier work.

The IC50 is the concentration needed to halve the response being measured. A word on the cell viability: it is a read-out of living cells in per cent, often relative to untreated cells. `COc1cc(/C=C/C(=O)C(=Cc2ccc(F)c(F)c2)C(=O)/C=C/c2ccc(O)c(OC)c2)ccc1O` [CDF, curcumin difluorinated]: the IC50 in data set [1] (after receptor blockade using free soluble HA) came to 473 ± 8.69 nM; in data set [1] (before the blockade of HA receptors), 465 ± 7.34 nM; in data set [2] it was 810 ± 1.51 nM; in data set [3] (MiaPaCa-2 cells), 400 ± 4.53 nM; in data set [4] it was 410 ± 3.64 nM. Further, the cell viability in data set [3] (1000 nM CDF equivalent concentration, MiaPaCa-2) turned out to be 28.47±2.29%. Also, the “anticancer activity compared to free CMN (in words)” value in data set [3] (MTT) is reported as “significantly improved anticancer activity”. Further, in data set [5], the “expression of CD44 levels (in words)” value is “marked reduction”. For the same compound, the water solubility in data set [6] (free form) is 0.6 µg/mL (≈ 1.22 µM).
In the case of `CC(=O)O[C@H]1C(=O)[C@@]2(C)[C@H]([C@H](OC(=O)c3ccccc3)[C@]3(O)C[C@H](OC(=O)[C@H](O)[C@@H](NC(=O)c4ccccc4)c4ccccc4)C(C)=C1C3(C)C)[C@]1(OC(C)=O)CO[C@@H]1C[C@@H]2O` [Paclitaxel, paclitaxel], in data set [6], the “water solubility (estimated)” value is 10 to 20 µM.
On to `CC(=O)O[C@@]12CO[C@@H]1C[C@H](O)[C@@]1(C)C(=O)[C@H](O)C3=C(C)[C@@H](OC(=O)[C@H](O)[C@@H](NC(=O)OC(C)(C)C)c4ccccc4)C[C@@](O)([C@@H](OC(=O)c4ccccc4)[C@H]21)C3(C)C` [Docetaxel, docetaxel], for which the “water solubility (estimated)” value in data set [6] is 10 to 20 µM.
